From PubChem BioAssay AID1963866 (Molecular Pharmacology Branch, DTP, NCI, 2024)

System: PDC KRAS tumor spheroids with HUVEC/MSC, viability
Assay: Anticancer human tumor 349418-098-R-PDC patient-derived lung adenocarcinoma cell line growth inhibition [KRAS2]
Settings: for IC50: curve of first compound; for viability, T/C: stronger effect = lower value; active = viability on the fitted dose curve at most 10% of control; inactive = the rest
How it was run: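 KRAS-mutant tumor cells were grown as spheroids with HUVEC endothelial cells and human MSCs as stroma. Targeted agents were tested alone and with KRAS pathway inhibitors. Doses started at or near clinical Cmax, or 10 microM, descending half-log.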

[1] = second compound 0.1 µM, first compound 0.0316 µM
[2] = second compound 0.1 µM, first compound 0.1 µM
[3] = second compound 0.1 µM, first compound 0.316 µM
[4] = second compound 0.1 µM, first compound 1 µM
[5] = second compound 0.316 µM, first compound 0.0316 µM
[6] = second compound 0.316 µM, first compound 0.1 µM
[7] = second compound 0.316 µM, first compound 0.316 µM
[8] = second compound 0.316 µM, first compound 1 µM
[9] = second compound 1 µM, first compound 0.0316 µM
[10] = second compound 1 µM, first compound 0.1 µM
[11] = second compound 1 µM, first compound 0.316 µM
[12] = second compound 1 µM, first compound 1 µM
[13] = second compound 3.16 µM, first compound 0.0316 µM
[14] = second compound 3.16 µM, first compound 0.1 µM
[15] = second compound 3.16 µM, first compound 0.316 µM
[16] = second compound 3.16 µM, first compound 1 µM
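Note: spheroids exposed to compounds for seven days before readout.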

CCNC(=O)CC1N=C(c2ccc(Cl)cc2)c2cc(OC)ccc2-n2c(C)nnc21 (stereo not given) + C=CC(=O)N1CCN(c2nc(OCC3CCCN3C)nc3c2CCN(c2cccc4cccc(C)c24)C3)CC1CC#N
active: viability, T/C (second compound 0.0316 µM, first compound 3.16 µM) 1.74% | viability, T/C (second compound 0.0316 µM, first compound 10 µM) 0.85% | viability, T/C [4] 9.94% | viability, T/C (second compound 0.1 µM, first compound 3.16 µM) 1.6% | viability, T/C (second compound 0.1 µM, first compound 10 µM) 0.66% | viability, T/C (second compound 0.316 µM, first compound 3.16 µM) 4.31% | viability, T/C (second compound 0.316 µM, first compound 10 µM) 1.58% | viability, T/C [12] 4.52% | viability, T/C (second compound 1 µM, first compound 3.16 µM) 0.59% | viability, T/C (second compound 1 µM, first compound 10 µM) 2.47% | viability, T/C [13] 0.12% | viability, T/C [14] 0.1% | viability, T/C [15] 0.09% | viability, T/C [16] 0.08% | viability, T/C (second compound 3.16 µM, first compound 3.16 µM) 0.08% | viability, T/C (second compound 3.16 µM, first compound 10 µM) 0.13%
< 0.0316 µM: IC50 (second compound 3.16 µM)
0.186 µM: IC50 (second compound 0.316 µM)
0.0477 µM: IC50 (second compound 1 µM)
0.122 µM: IC50 (second compound 0.0316 µM)
0.0957 µM: IC50 (second compound 0.1 µM)
inactive: viability, T/C (second compound 0.0316 µM, first compound 0.0316 µM) 102% | viability, T/C (second compound 0.0316 µM, first compound 0.1 µM) 50.9% | viability, T/C (second compound 0.0316 µM, first compound 0.316 µM) 34.2% | viability, T/C (second compound 0.0316 µM, first compound 1 µM) 8.72% | viability, T/C [1] 93.1% | viability, T/C [2] 48.1% | viability, T/C [3] 21.8% | viability, T/C [5] 101% | viability, T/C [6] 70.5% | viability, T/C [7] 30.6% | viability, T/C [8] 16.6% | viability, T/C [9] 62.9% | viability, T/C [10] 26.6% | viability, T/C [11] 10.7%

CCN1CCN(Cc2ccc(Nc3ncc(F)c(-c4cc(F)c5nc(C)n(C(C)C)c5c4)n3)nc2)CC1 + C=CC(=O)N1CCN(c2nc(=O)n(-c3c(C)ccnc3C(C)C)c3nc(-c4c(O)cccc4F)c(F)cc23)C(C)C1
0.0074 µM: IC50 (second compound 1 µM)
0.00765 µM: IC50 (second compound 0.316 µM)
< 0.00316 µM: IC50 (second compound 10 µM)
active: viability, T/C [4] 4.22% | viability, T/C [8] 4.52% | viability, T/C [12] 2.9% | viability, T/C [16] 2.48% | viability, T/C (second compound 10 µM, first compound 0.1 µM) 8.96% | viability, T/C (second compound 10 µM, first compound 0.316 µM) 8.17% | viability, T/C (second compound 10 µM, first compound 1 µM) 0.93%
0.00446 µM: IC50 (second compound 3.16 µM)
0.00677 µM: IC50 (second compound 0.1 µM)
inactive: viability, T/C (second compound 0.1 µM, first compound 0.00316 µM) 71.8% | viability, T/C (second compound 0.1 µM, first compound 0.01 µM) 37.4% | viability, T/C [1] 21.8% | viability, T/C [2] 18% | viability, T/C [3] 15.4% | viability, T/C (second compound 0.316 µM, first compound 0.00316 µM) 76.3% | viability, T/C (second compound 0.316 µM, first compound 0.01 µM) 41.9% | viability, T/C [5] 20.9% | viability, T/C [6] 19.5% | viability, T/C [7] 14.6% | viability, T/C (second compound 1 µM, first compound 0.00316 µM) 75.9% | viability, T/C (second compound 1 µM, first compound 0.01 µM) 40.6% | viability, T/C [9] 21.7% | viability, T/C [10] 15% | viability, T/C [11] 15.7% | viability, T/C (second compound 3.16 µM, first compound 0.00316 µM) 55.4% | viability, T/C (second compound 3.16 µM, first compound 0.01 µM) 39.6% | viability, T/C [13] 18.5% | viability, T/C [14] 18.4% | viability, T/C [15] 16.6% | viability, T/C (second compound 10 µM, first compound 0.00316 µM) 25.3% | viability, T/C (second compound 10 µM, first compound 0.01 µM) 14.2% | viability, T/C (second compound 10 µM, first compound 0.0316 µM) 12.8%
